For experiment [1], the system named is KC6141 cells. In words: L-Amino acid assay. In kind it is cell-based, mouse. To be noted: 0.5 mM glucose, 24 hrs; for amino acid content: KC6141 cells on ECM. How it is done: Extracellular Matrix (ECM) Preparation. Skin fibroblasts were seeded on 6/12/96-well plates. One day after plating, cells were switched into DMEM (with pyruvate) with 10% dialysed FBS supplemented with or without 500 μM ^3H-proline and 100 μM Vitamin C. Cells were cultured for 6 days with media renewal every 24 h. After six days, skin fibroblasts were removed by washing in 1 ml or 500 μl or 100 μl per well PBS with 0.5% (v/v) Triton X-100 and 20 mM NH4OH. ECM was washed five times with PBS before plating KC6141 cells. The following day, KC6141 cells were switched into the indicated medium for 24 or 72 hrs.
L-Amino Acid Assay. Total amount of free L-amino acids (except for glycine) were measured by L-Amino Acid Assay Kit (Colorimetric) (antibodies) according to manufacturer's protocol. Briefly, KC6141 cells were grown on 6-well plates coated with or without ECM and treated as above. The cells were resuspended at 10^6 cells/mL 1× Assay Buffer and were homogenized on ice and then centrifuged to remove debris. 50 μL of each L-Alanine standard or cell lysis was added into wells of a 96-well microtiter plate. Then 50 μL of Reaction Mix was added to each well. The well contents were mixed thoroughly and incubated for 90 minutes at 37° C. protected from light. The plate was read with a spectrophotometric microplate reader in the 540-570 nm range. The concentration of L-Amino Acids was calculated within samples by comparing the sample OD to the standard curve.

For experiment [2], the system named is KC6141 cells. In words: BrdU incorporation (immunofluorescence). It counts as cell-based, mouse. Conditions: 0.5 mM glucose, 24 hrs; for BrdU incorporation (cell proliferation): KC6141 cells on ECM.
In experiment [3] the test system is parental and IKKα KO MIA PaCa-2 tumors. Put plainly: Heterotopic s.c. xenografts in nude mice. In kind it is in vivo, mouse. As for the experimental part: To evaluate the effects of MP on tumor growth in the autochthonous model, Kras^G12D;Ikkα^Δpan mice, at 4 weeks of age, were treated with vehicle or 10 mg/kg EIPA (Sigma) by intraperitoneal injection every other day for 1 month. After that, surgically removed pancreata were weighed and used for further analysis. To evaluate the effects of MP on heterotopic xenografts, female homozygous BALB/c Nu/Nu nude mice were injected subcutaneously (s.c.) in both flanks at 7 weeks of age with 10^6 parental and IKKα KO MIA PaCa-2 cells mixed at a 1:1 dilution with BD Matrigel (BD Biosciences) in a total volume of 100 μl. Mice were treated with EIPA (7.5 mg/kg) for 15 days when tumors attained an average volume of 50-100 mm^3. As a control, animals treated with vehicle (DMSO in PBS) were used. Volumes (1/2×(width^2×length)) of s.c. tumors were calculated on the basis of measurements using digital calipers after 15 days of treatment. […] Tumor volumes were calculated as above.
In some embodiments, to evaluate the effects of MP on tumor growth or survival in the autochthonous model, Kras^G12D;Ikkα^ΔPEC mice, at 4 weeks of age, were treated with vehicle or 10 mg/kg EIPA (Sigma) by i.p. injection every other day for 1 month. […] Volumes (1/2×(width^2×length)) of s.c. tumors were calculated on the basis of measurements using digital calipers after 15 days of treatment. […] Tumor volumes were calculated as above.

A further experiment deals with Kras^G12D;Ikkα^ΔPEC mice. Put plainly: Autochthonous PDAC model. In kind it is in vivo, mouse. As for the experimental part:
To evaluate the effects of MP on tumor growth in the autochthonous model, Kras^G12D;Ikkα^Δpan mice, at 4 weeks of age, were treated with vehicle or 10 mg/kg EIPA (Sigma) by intraperitoneal injection every other day for 1 month. After that, surgically removed pancreata were weighed and used for further analysis. To evaluate the effects of MP on heterotopic xenografts, female homozygous BALB/c Nu/Nu nude mice were injected subcutaneously (s.c.) in both flanks at 7 weeks of age with 10^6 parental and IKKα KO MIA PaCa-2 cells mixed at a 1:1 dilution with BD Matrigel (BD Biosciences) in a total volume of 100 μl. Mice were treated with EIPA (7.5 mg/kg) for 15 days when tumors attained an average volume of 50-100 mm^3. As a control, animals treated with vehicle (DMSO in PBS) were used. Volumes (1/2×(width^2×length)) of s.c. tumors were calculated on the basis of measurements using digital calipers after 15 days of treatment. To evaluate the combination effects of autophagy and MP inhibition on tumor growth, C57BL/6 mice were injected s.c. at 7 weeks of age with 10^7 KC6141 cells in a total volume of 100 μl. Mice were treated with vehicle, EIPA (7.5 mg/kg), MRT68921 (10 mg/kg, MCE), or EIPA and MRT68921 for 21 days when tumors attained an average volume of 100 mm^3. Tumor volumes were calculated as above.
In some embodiments, to evaluate the effects of MP on tumor growth or survival in the autochthonous model, Kras^G12D;Ikkα^ΔPEC mice, at 4 weeks of age, were treated with vehicle or 10 mg/kg EIPA (Sigma) by i.p. injection every other day for 1 month. After that, surgically removed pancreata were weighed and used for further analysis and other mice were continued to maintain for survival. To evaluate the effects of MP on heterotopic xenografts, female homozygous BALB/c Nu/Nu nude mice were injected subcutaneously (s.c.) in both flanks at 7 weeks of age with 10^6 parental and IKKα^Δ MIA PaCa-2 cells or 1334 and 1444 cells mixed at a 1:1 dilution with BD Matrigel (BD Biosciences) in a total volume of 100 μl. Mice were treated with vehicle (DMSO in PBS), EIPA (7.5 mg/kg), MRT68921 (10 mg/kg) or MRT68921 and EIPA for 15 days when tumors attained an average volume of 50-100 mm^3. Volumes (1/2×(width^2×length)) of s.c. tumors were calculated on the basis of measurements using digital calipers after 15 days of treatment. To evaluate the combination effects of autophagy and MP inhibition on tumor growth, C57BL/6 mice were injected s.c. at 7 weeks of age with 10^6 parental, Ikkα KD, Nhe1 KD or Ikkα+Nhe1 DKD KC6141 cells in a total volume of 100 μl. Mice were treated with or without vehicle, EIPA (7.5 mg/kg), MRT68921 (10 mg/kg), or EIPA and MRT68921 for 21 days when tumors attained an average volume of 50-100 mm^3. Tumor volumes were calculated as above.
Cell imaging. Immunostaining was performed as described^44. Cells were cultured on coverslips and fixed in 4% PFA for 10 min at room temperature. After washing twice in PBS, cells were incubated in PBS containing 10% FBS to block nonspecific sites of antibody adsorption. The cells were then incubated with the appropriate primary antibodies (diluted 1:100) and secondary antibodies (diluted 1:500) in PBS containing 10% FBS with or without 0.1% saponin. For cell macropinosome visualization, 24 hrs after seeding, the cells were serum starved for 18 hrs. Macropinosomes were marked using a high-molecular-mass (70 KD) TMR-Dextran (Invitrogen)-uptake assay, wherein TMR-DEX was added to serum-free medium at a final concentration of 1 mg/ml for 30 min at 37° C. At the end of the incubation period, the cells were rinsed five times in cold PBS and immediately fixed in 4% PFA. For tissue macropinosome visualization^45, fresh pancreata were cut into pieces with an approximate 5-mm cuboidal shape. A tissue section was placed in a 24-well plate and injected 150 μL of 10 mg/ml TMR-DEX solution directly into the tissue piece. Another 250 μL of diluted TMR-DEX solution were added to the well to immerse the tissue section. […]

Where [4] appears, read: 10 mg/kg EIPA for 1 month vs vehicle.

Structures are written as SMILES. Entries after “also recorded” stand apart in the source; their conditions may differ.

Turning to `CN1CCc2cc(Nc3ncc(C4CC4)c(NCCCNC(=O)C4CCC4)n3)ccc2C1` [MRT68921], the amino acid content entry in the experiment on KC6141 cells [1] is recorded as “further elevated”. Moreover, the “BrdU incorporation (cell proliferation)” value in the experiment with KC6141 cells [2] is “further elevated”; in the experiment with KC6141 cells [2] (listed as MRT) it was “enhanced cell proliferation in WT, but not in Nrf2 KD KC6141”.
For `CCN(c1nc(N)c(C(=O)N=C(N)N)nc1Cl)C(C)C` [EIPA, 5-(N-ethyl-N-isopropyl) amiloride], the “growth of IKKα-deficient tumors / their EIPA sensitivity vs parental” value in experiment [3] (IKKα KO (IKKα^Δ) MIA PaCa-2 tumors, EIPA 7.5 mg/kg for 15 days) is listed as “strongly inhibited; also recorded: more EIPA sensitive”. Besides, the tumor size result in experiment [3] (parental and IKKα KO MIA PaCa-2 tumors, EIPA 7.5 mg/kg for 15 days vs vehicle) is listed as “reduced tumor size in both groups; also recorded: significantly suppressed”. The amino acid content result in the experiment with KC6141 cells [1] was “reduced”. Also, the “amino acid content in p62/NRF2 ablated cells” value in the experiment on KC6141 cells [1] (p62 KD or Nrf2 KD KC6141 cells on ECM) is reported as “ineffective”. For the same compound, the “residual cancer tissue (histological analysis)” value in the experiment with Kras^G12D;Ikkα^ΔPEC mice (10 mg/kg EIPA for 1 month) is listed as “very little residual cancer tissue; also recorded: little residual cancer tissue”. In addition, in the experiment with Kras^G12D;Ikkα^ΔPEC mice (setting [4]), the “IHC: acinar cell loss (amylase up, CK19 and SOX9 down)” value is “prevented acinar cell loss”; the “MP in TMR-DEX injected pancreata” value is “decreased MP”; the “histology (H&E): ADM, advanced PanIN formation, normal parenchyma” value was “inhibited acinar-to-ductal metaplasia (ADM) and advanced pancreatic intraepithelial neoplasia (PanIN) formation, and preserved the normal pancreatic parenchyma”. For the same compound, the “pancreatic weight (a measure of tumor growth)” value in the experiment on Kras^G12D;Ikkα^ΔPEC mice (10 mg/kg EIPA i.p. every other day for 1 month, from 1 month of age, vs vehicle) is given as “markedly reduced; also recorded: significantly reduced”. Moreover, the “survival (Kaplan-Meier)” value with Kras^G12D;Ikkα^ΔPEC mice (10 mg/kg EIPA vs vehicle, n=12) is listed as “substantially extended; also recorded: enhanced the percent survival rate”. Besides, the “BrdU incorporation (cell proliferation)” value with KC6141 cells [2] is given as “reduced; also recorded: suppressed cell proliferation in all conditions”. Further, the “BrdU incorporation in NRF2 ablated cells” value with KC6141 cells [2] (Nrf2 KD KC6141 cells on ECM) is on record as “ineffective”.

These data come from US12458630B2, “Combination therapy for cancer” (The Regents of the University of California, priority 2020, dated 2025).
